Source: US10106544B2, “1,2-dihydro-3H-pyrrolo[1,2-C]imidazol-3-one derivatives and their use as antibacterial agents” (priority 2014, dated 2018)
Converted amounts (≈) assume the structure as drawn. Where two headings read alike, the source gives them in different places.

What was measured:
Experiment in all cases: Bacterial growth minimal inhibitory concentration (microdilution, cation-adjusted Mueller-Hinton Broth)
Type in all cases: cell-based
[1] = test system: P. aeruginosa ATCC27853; details: for MIC for P. aeruginosa ATCC27853: quinolone-sensitive strain; for MIC: Pseudomonas aeruginosa
Summary of the method: (§1)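 Broth microdilution in cation-adjusted Mueller-Hinton Broth per CLSI M7-A7, MIC in mg/L. K. pneumoniae A-651 is multiply resistant, including to quinolones. E. coli ATCC25922 and P. aeruginosa ATCC27853 are quinolone-sensitive.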

[2] = test system: K. pneumoniae A-651; details: for MIC: Klebsiella pneumoniae
Summary of the method: as §1

[3] = test system: E. coli ATCC25922; details: for MIC: Escherichia coli
Summary of the method: as §1

[4] = multiply-resistant strain (in particular quinolone-resistant)
[5] = ATCC27853, quinolone-sensitive strain, read-out: MIC for P. aeruginosa ATCC27853
[6] = A651, multiply-resistant strain (in particular quinolone-resistant), read-out: MIC for K. Pneumoniae A-651
[7] = ATCC25922, quinolone-sensitive strain, read-out: MIC for E. coli ATCC25922

MIC [1, 5] [µg/mL]	MIC [2, 6] [µg/mL]	MIC [3, 7] [µg/mL]	SMILES	further results
1 (≈ 2.16 µM)	8 (≈ 17.3 µM)	2 (≈ 4.32 µM)	C[C@@](CCN1Cc2cc(C#CC#C[C@@H]3CC[C@@H](N)CO3)cn2C1=O)(C(=O)NO)S(C)(=O)=O [Example 65, (R)-4-(6-(((2S,5R)-5-aminotetrahydro-2H-pyran-2-yl)buta-1,3-diyn-1-yl)-3-oxo-1H-pyrrolo[1,2-c]imidazol-2(3H)-yl)-N-hydroxy-2-methyl-2-(methylsulfonyl)butanamide]	–
1 (≈ 2.1 µM)	0.125 (≈ 0.262 µM)	0.125 (≈ 0.262 µM)	C[C@@](CCN1Cc2cc(C#Cc3ccc(C4(N)CC4)s3)cn2C1=O)(C(=O)NO)S(C)(=O)=O [Example 68, (R)-4-(6-((5-(1-aminocyclopropyl)thiophen-2-yl)ethynyl)-3-oxo-1H-pyrrolo[1,2-c]imidazol-2(3H)-yl)-N-hydroxy-2-methyl-2-(methylsulfonyl)butanamide]	–
2 (≈ 4.11 µM)	2 (≈ 4.11 µM)	0.5 (≈ 1.03 µM)	C[C@@](CCN1Cc2cc(C#Cc3ccc(C4(N)COC4)cc3)cn2C1=O)(C(=O)NO)S(C)(=O)=O [Example 69, (R)-4-(6-((4-(3-aminooxetan-3-yl)phenyl)ethynyl)-3-oxo-1H-pyrrolo[1,2-c]imidazol-2(3H)-yl)-N-hydroxy-2-methyl-2-(methylsulfonyl)butanamide]	–
2 (≈ 3.99 µM)	2 (≈ 3.99 µM)	1 (≈ 1.99 µM)	C[C@@](CCN1Cc2cc(C#Cc3ccc(C4(CO)COC4)cc3)cn2C1=O)(C(=O)NO)S(C)(=O)=O [Example 70, (R)-N-hydroxy-4-(6-((4-(3-(hydroxymethyl)oxetan-3-yl)phenyl)ethynyl)-3-oxo-1H-pyrrolo[1,2-c]imidazol-2(3H)-yl)-2-methyl-2-(methylsulfonyl)butanamide]	–
1 (≈ 2.05 µM)	1 (≈ 2.05 µM)	0.25 (≈ 0.512 µM)	C[C@@](CCN1Cc2cc(C#Cc3ccc(NC(=O)CO)cc3)cn2C1=O)(C(=O)NO)S(C)(=O)=O [Example 71, (R)-N-hydroxy-4-(6-((4-(2-hydroxyacetamido)phenyl)ethynyl)-3-oxo-1H-pyrrolo[1,2-c]imidazol-2(3H)-yl)-2-methyl-2-(methylsulfonyl)butanamide]	–
2 (≈ 4.16 µM)	2 (≈ 4.16 µM)	1 (≈ 2.08 µM)	CC(C)(O)c1ncc(C#Cc2cc3n(c2)C(=O)N(CC[C@](C)(C(=O)NO)S(C)(=O)=O)C3)s1 [Example 76, (R)-N-hydroxy-4-(6-((2-(2-hydroxypropan-2-yl)thiazol-5-yl)ethynyl)-3-oxo-1H-pyrrolo[1,2-c]imidazol-2(3H)-yl)-2-methyl-2-(methylsulfonyl)butanamide]	–
2	16	8	C[C@@](CCN1Cc2cc(C#Cc3ccc(CN4CCC(N)CC4)cc3)cn2C1=O)(C(=O)NO)S(C)(=O)=O.Cl.Cl [Example 77, (R)-4-(6-((4-((4-aminopiperidin-1-yl)methyl)phenyl)ethynyl)-3-oxo-1H-pyrrolo[1,2-c]imidazol-2(3H)-yl)-N-hydroxy-2-methyl-2-(methylsulfonyl)butanamide dihydrochloride]	–
1 (≈ 1.89 µM)	2 (≈ 3.78 µM)	1 (≈ 1.89 µM)	C[C@@](CCN1Cc2cc(C#Cc3ccc(CN4CCC(O)CC4)cc3)cn2C1=O)(C(=O)NO)S(C)(=O)=O [Example 80, (R)-N-hydroxy-4-(6-((4-((4-hydroxypiperidin-1-yl)methyl)phenyl)ethynyl)-3-oxo-1H-pyrrolo[1,2-c]imidazol-2(3H)-yl)-2-methyl-2-(methylsulfonyl)butanamide]	–
2 (≈ 3.89 µM)	16 (≈ 31.2 µM)	8 (≈ 15.6 µM)	C[C@@](CCN1Cc2cc(C#Cc3ccc(N4CCC(N)CC4)cc3)cn2C1=O)(C(=O)NO)S(C)(=O)=O [Example 81, (R)-4-(6-((4-(4-aminopiperidin-1-yl)phenyl)ethynyl)-3-oxo-1H-pyrrolo[1,2-c]imidazol-2(3H)-yl)-N-hydroxy-2-methyl-2-(methylsulfonyl)butanamide]	–
1 (≈ 1.91 µM)	1 (≈ 1.91 µM)	0.5 (≈ 0.957 µM)	C[C@@](CCN1Cc2cc(C#Cc3ccc(CNS(C)(=O)=O)cc3)cn2C1=O)(C(=O)NO)S(C)(=O)=O [Example 82, (R)-N-hydroxy-2-methyl-4-(6-((4-(methylsulfonamidomethyl)phenyl)ethynyl)-3-oxo-1H-pyrrolo[1,2-c]imidazol-2(3H)-yl)-2-(methylsulfonyl)butanamide]	–
1 (≈ 2.11 µM)	0.5 (≈ 1.05 µM)	0.5 (≈ 1.05 µM)	C[C@@](CCN1Cc2cc(C#CC#CC3CN(C4COC4)C3)cn2C1=O)(C(=O)NO)S(C)(=O)=O [Example 83, (R)-N-hydroxy-2-methyl-2-(methylsulfonyl)-4-(6-((1-(oxetan-3-yl)azetidin-3-yl)buta-1,3-diyn-1-yl)-3-oxo-1H-pyrrolo[1,2-c]imidazol-2(3H)-yl)butanamide]	–

Continued, molecule first:

SMILES	MIC [1, 5] [µg/mL]	MIC [2, 6] [µg/mL]	MIC [3, 7] [µg/mL]	further results
C[C@@](CCN1Cc2cc(C#CC#CC3(CO)COC3)cn2C1=O)(C(=O)NO)S(C)(=O)=O [Example 57]	–	–	–	MIC for P. aeruginosa ATCC27853 [1]: 4 mg/L; MIC for K. Pneumoniae A-651 [2, 4]: 2 mg/L; MIC for E. coli ATCC25922 ([3]; quinolone-sensitive strain): 1 mg/L
C[C@@](CCN1Cc2cc(C#CC#CCNS(C)(=O)=O)cn2C1=O)(C(=O)NO)S(C)(=O)=O [Example 58, (R)-N-hydroxy-2-methyl-4-(6-(5-(methylsulfonamido)penta-1,3-diyn-1-yl)-3-oxo-1H-pyrrolo[1,2-c]imidazol-2(3H)-yl)-2-(methylsulfonyl)butanamide]	4 (≈ 8.5 µM)	8 (≈ 17 µM)	4 (≈ 8.5 µM)	–
CC(C)(C)OC(=O)N1CC(O)(c2ccc(C#Cc3cc4n(c3)C(=O)N(CC[C@](C)(C(=O)NO)S(C)(=O)=O)C4)cc2)C1 [Example 59, tert-butyl (R)-3-hydroxy-3-(4-((2-(4-(hydroxyamino)-3-methyl-3-(methylsulfonyl)-4-oxobutyl)-3-oxo-2,3-dihydro-1H-pyrrolo[1,2-c]imidazol-6-yl)ethynyl)phenyl)azetidine-1-carboxylate]	8 (≈ 13.6 µM)	1 (≈ 1.7 µM)	1 (≈ 1.7 µM)	–
C[C@]1(CO)C[C@@H]1C#CC#Cc1cc2n(c1)C(=O)N(CC[C@](C)(C(=O)NO)S(C)(=O)=O)C2 [Example 61, (R)-N-hydroxy-4-(6-(((1R,2S)-2-(hydroxymethyl)-2-methylcyclopropyl)buta-1,3-diyn-1-yl)-3-oxo-1H-pyrrolo[1,2-c]imidazol-2(3H)-yl)-2-methyl-2-(methylsulfonyl)butanamide]	0.25 (≈ 0.559 µM)	0.25 (≈ 0.559 µM)	0.25 (≈ 0.559 µM)	–
C[C@@](CCN1Cc2cc(C#CC#CC3CN(C(=O)CO)C3)cn2C1=O)(C(=O)NO)S(C)(=O)=O [Example 62, (R)-N-hydroxy-4-(6-((1-(2-hydroxyacetyl)azetidin-3-yl)buta-1,3-diyn-1-yl)-3-oxo-1H-pyrrolo[1,2-c]imidazol-2(3H)-yl)-2-methyl-2-(methylsulfonyl)butanamide]	1 (≈ 2.1 µM)	4 (≈ 8.39 µM)	1 (≈ 2.1 µM)	–
C[C@@](CCN1Cc2cc(C#CC#CCC3(O)COC3)cn2C1=O)(C(=O)NO)S(C)(=O)=O [Example 63, (R)-N-hydroxy-4-(6-(5-(3-hydroxyoxetan-3-yl)penta-1,3-diyn-1-yl)-3-oxo-1H-pyrrolo[1,2-c]imidazol-2(3H)-yl)-2-methyl-2-(methylsulfonyl)butanamide]	4 (≈ 8.9 µM)	4 (≈ 8.9 µM)	2 (≈ 4.45 µM)	–
C[C@@](CCN1Cc2cc(C#CC#CC3(O)CCOCC3)cn2C1=O)(C(=O)NO)S(C)(=O)=O [Example 64, (R)-N-hydroxy-4-(6-((4-hydroxytetrahydro-2H-pyran-4-yl)buta-1,3-diyn-1-yl)-3-oxo-1H-pyrrolo[1,2-c]imidazol-2(3H)-yl)-2-methyl-2-(methylsulfonyl)butanamide]	4 (≈ 8.63 µM)	8 (≈ 17.3 µM)	4 (≈ 8.63 µM)	–
C[C@@](CCN1Cc2cc(C#Cc3ccc(C4(N)CC4)cc3)cn2C1=O)(C(=O)NO)S(C)(=O)=O [Example 72, (R)-4-(6-((4-(1-aminocyclopropyl)phenyl)ethynyl)-3-oxo-1H-pyrrolo[1,2-c]imidazol-2(3H)-yl)-N-hydroxy-2-methyl-2-(methylsulfonyl)butanamide]	–	–	–	MIC ([1]; ATCC27853, read-out: MIC for P. aeruginosa ATCC27853): 0.5 µg/mL (≈ 1.06 µM); MIC ([2]; A651, read-out: MIC for K. Pneumoniae A-651): 0.25 µg/mL (≈ 0.531 µM); MIC ([3]; ATCC25922, read-out: MIC for E. coli ATCC25922): 0.125 µg/mL (≈ 0.266 µM)
C[C@@](CCN1Cc2cc(C#CC#CC[C@]3(O)C[C@@H](CO)C3)cn2C1=O)(C(=O)NO)S(C)(=O)=O [Example 73, (R)-N-hydroxy-4-(6-(5-((1s,3R)-1-hydroxy-3-(hydroxymethyl)cyclobutyl)penta-1,3-diyn-1-yl)-3-oxo-1H-pyrrolo[1,2-c]imidazol-2(3H)-yl)-2-methyl-2-(methylsulfonyl)butanamide]	–	–	–	MIC for P. aeruginosa ATCC27853 [1]: 4 mg/L; MIC for K. Pneumoniae A-651 [2, 4]: 16 mg/L; MIC for E. coli ATCC25922 ([3]; quinolone-sensitive strain): 8 mg/L
C[C@@](CCN1Cc2cc(C#CC#CC3(COC(=O)OCOP(=O)(O)O)CC3)cn2C1=O)(C(=O)NO)S(C)(=O)=O [Example 75, (R)-(1-((2-(4-(hydroxyamino)-3-methyl-3-(methylsulfonyl)-4-oxobutyl)-3-oxo-2,3-dihydro-1H-pyrrolo[1,2-c]imidazol-6-yl)buta-1,3-diyn-1-yl)cyclopropyl)methyl((phosphonooxy)methyl)carbonate]	–	–	–	MIC for P. aeruginosa ATCC27853 [1]: 2 mg/L; MIC for K. Pneumoniae A-651 [2, 4]: 2 mg/L; MIC for E. coli ATCC25922 ([3]; quinolone-sensitive strain): 1 mg/L
